{"source": "paper PMC10117725", "about": "“From an Hsp90 - binding protein to a peptide drug” (microLife, 2022)", "key": {"[1]": {"tested_on": "S. aureus USA300 internalization by HaCaT cells", "test": "S. aureus USA300 invasion (internalization) into HaCaT keratinocytes", "type": "cell-based, human", "procedure": "The invasion protocol was adapted from our previous papers (Nguyen et al. [2015], Tribelli et al. [2020]). About 5 × 10^5 Keratinocytes were seeded in a 24 well plate (Greiner, Frickenhausen, Germany) to attain a monolayer of ∼10^6 cells/well. Staphylococcusaureus was grown overnight at 37°C, centrifuged and suspended in invasion medium (DMEM with 10% FBS for HaCaT and K-SFM for NTERT-1 cells). The adherent keratinocytes were […], or 5 µM geldanamycin (Sigma-Aldrich, Germany) or monoclonal antibodies specific against Hsp90α (α‐Hsp90α, Abcam) for 1 h. After 1 h, 100 µl of bacterial suspension was added to each well to attain a MOI (multiplicity of infection) of 30 and incubated with cells for 1.5 h. Subsequently, the extracellular bacteria were killed with treatment of 2.5 μg/ml lysostaphin (Sigma-Aldrich, Germany) for 1.5 h. The cells were then washed, lysed, mechanically detached by scraping, diluted, and enumerated on TSA (Tryptic Soy Agar) plates to quantify the intracellular bacteria."}, "[2]": {"tested_on": "F-actin levels in HaCaT cells", "test": "F-actin measurement (ActinGreen 488 fluorescence) in HaCaT cells", "type": "cell-based, human", "settings": "35 µg/ml peptide (L15 20 µM, L13 30 µM), geldanamycin 5 µM; 1.5 h; ActinGreen 488 fluorescence relative to control", "procedure": "(§1) About 5 × 10^4 cells were seeded in black flat bottom 96 well cell culture microplate (Greiner, Germany) and incubated overnight. The cells were then incubated with peptides or geldanamycin for 1.5 h. After incubation, the cells were washed, permeabilised with 0.1% (v/v) Triton X-100 and stained with ActinGreen™ 488 ReadyProbes® (Thermo Fischer, Germany) for 30 min. After the staining, the cells were washed and measure for its fluorescence at Excitation/Emission: 495/518 nm (Luqman et al. [2020])."}, "[3]": {"tested_on": "F-actin levels in N/TERT-1 cells", "test": "F-actin measurement (ActinGreen 488 fluorescence) in N/TERT-1 cells", "type": "cell-based, human", "settings": "L15 20 µM, L13 30 µM, geldanamycin 5 µM; 1.5 h; relative to control", "procedure": "as §1"}, "HaCaT cells": {"tested_on": "HaCaT cells", "test": "MTT cytotoxicity in HaCaT cells", "type": "cell-based, human", "settings": "MTT, 24 h, 1–200 µM", "procedure": "(§2) MTT (3-(4,5-dimethylthiazol-2-yl)-2,5-diphenyl tetrazolium bromide) assay was employed to analyze the cytotoxicity of peptides and geldanamycin to the cells. 5 × 10^5 cells were seeded in a 96 flat bottom well plate and incubated for 2.5 or 24 h at 37°C with 5% CO2. The cells were then treated with increasing concentration (0 to 200 µM) of peptides or geldanamycin for 24 h. After the incubation, 10 μl of the MTT labelling reagent is added to each well to attain a final concentration 0.5 mg/ml, followed by 4 h incubation. Metabolically active cells convert the yellow tetrazolium salt to purple formazan crystals, which were solubilized using the solubilization solution (DMSO) and measured for absorbance at λmax/λref–570/690 nm (Saising et al. [2018])."}, "MONO-MAC-6 (MM6) cells": {"tested_on": "MONO-MAC-6 (MM6) cells", "test": "MTT cytotoxicity in MM6 cells", "type": "cell-based, human", "settings": "24 h, 1–200 µM", "procedure": "as §2"}, "S. aureus Newman": {"tested_on": "S. aureus Newman", "test": "Galleria mellonella larvae infection model, S. aureus Newman", "type": "in vivo", "procedure": "(§3) Galleria mellonella larvae, purchased from Feeders & more GmbH, Germany, were sorted based on weight and used within one week. Ten larvae per group with weight average of 500 mg/larvae were injected with bacteria and/or peptides on its last proleg using a BD insulin syringe. The dosage used for the experiment were 60 mg/kg for peptides, 5 mg/kg of geldanamycin and 20 mg/kg for vancomycin. Each larva was injected with 10 µl of L15 (last left proleg) 1 h before administration of 10^6 cfu S. aureus (last right proleg). The larvae were maintained at 37°C and observed for mortality every day over the course of 5 days."}, "[4]": {"tested_on": "Galleria mellonella larvae", "test": "Toxicity of tested doses to Galleria mellonella larvae", "procedure": "as §3"}, "[5]": {"tested_on": "phagocytosis by primary human CD14+ monocytes", "test": "Phagocytosis of S. aureus USA300 by CD14+ monocytes", "type": "cell-based", "settings": "L15 20 µM, L13 30 µM, geldanamycin 5 µM, 60 min preincubation; MOI 30, 90 min; n = 4 donors; SEM", "procedure": "Peripheral Blood Mononuclear cells (PBMCs) were isolated by density gradient centrifugation following the previous study (Nguyen et al. [2022]). From the pool of PBMCs, monocytes were isolated by positive selection with anti-human CD14 microbeads (Miltenyi Biotech, Bergisch-Gladbach, Germany) following a previously reported protocol (Nguyen et al. [2022]). The purity was analysed by flow cytometry on a BD Accuri C6 (BD Biosciences, Heidelberg, Germany) with anti-human CD14-FITC, CD45-PE and propidium iodide (BD Biosciences, Heidelberg, Germany) and ranged from 85% to 98%.\nFor the phagocytosis, 10^6 CD14^+ monocytes were seeded in 1 ml of medium (RPMI supplemented with L-Glutamine and 10% FCS) in a 12 well plate (Greiner, Germany). The cells were incubated with 20 µM of L15, 30 µM of L13, or 5 µM of Geldanamycin for 60 min at 37°C and 5% CO2 before addition of bacteria. For the phagocytosis assay, bacterial cells were resuspended in 100 µl RPMI medium at MOI of 30 and incubated with monocytes for 90 min. The cells were washed once with PBS and 0.5 ml of medium supplemented with 2.5 µg/ml of Lysostaphin was added for 90 min to remove the extracellular bacteria. Then, monocytes were washed twice with PBS and resuspended in 0.5 ml of milliQ dH2O. The cells were scraped, and the lysed solution was transferred into a new 1.5 ml Eppendorf tube for a 5 min sonication (frequency 80, power 100) at room temperature to prevent the bacterial cell clumping by using ultrasonic water bath Elmasonic P (Elma Schmidbauer Gmb, Singen, Germany). About 10 µl fractions of undiluted, 10^−1, 10^−2, and 10^−3 dilutions were inoculated on tryptic soy agar (TSA) plates and incubated overnight at 37°C. The numbers of internalized bacteria were determined based on the manual counting of bacterial colony forming units (cfu) recovered on the agar plates."}, "[6]": {"tested_on": "S. aureus USA300 infected PBMCs", "test": "Cytokine release of S. aureus USA300 infected PBMCs (ELISA)", "type": "cell-based, human", "settings": "L15 20 µM, L13 30 µM, geldanamycin 5 µM, 20 h, vs unstimulated infected PBMCs"}, "[7]": {"tested_on": "S. aureus USA300 invasion into N/TERT-1 cells", "test": "S. aureus USA300 invasion into N/TERT-1 keratinocytes", "type": "cell-based, human", "settings": "pretreatment with L15 20 µM, L13 30 µM, geldanamycin 5 µM or α-Hsp90α antibody", "procedure": "The invasion protocol was adapted from our previous papers (Nguyen et al. [2015], Tribelli et al. [2020]). About 5 × 10^5 Keratinocytes were seeded in a 24 well plate (Greiner, Frickenhausen, Germany) to attain a monolayer of ∼10^6 cells/well. Staphylococcusaureus was grown overnight at 37°C, centrifuged and suspended in invasion medium (DMEM with 10% FBS for HaCaT and K-SFM for NTERT-1 cells). The adherent keratinocytes were washed with PBS and supplemented with invasion medium followed by treatment with 20 µM of L15, 30 µM of L13, or 5 µM geldanamycin (Sigma-Aldrich, Germany) or monoclonal antibodies specific against Hsp90α (α‐Hsp90α, Abcam) for 1 h. After 1 h, 100 µl of bacterial suspension was added to each well to attain a MOI (multiplicity of infection) of 30 and incubated with cells for 1.5 h. Subsequently, the extracellular bacteria were killed with treatment of 2.5 μg/ml lysostaphin (Sigma-Aldrich, Germany) for 1.5 h. The cells were then washed, lysed, mechanically detached by scraping, diluted, and enumerated on TSA (Tryptic Soy Agar) plates to quantify the intracellular bacteria."}, "Hsp90α": {"biological_target": "T1, Hsp90α (Homo sapiens, UniProt P07900)", "T1 construct": "purchased Abcam", "type": "binding", "settings": "dot blot, 2 µg blotted on membrane, 20 µg recombinant Hsp90α at 4°C overnight, α-Hsp90α immunodetection", "procedure": "Two µg of each peptide was blotted (dot blot) directly on PDV nitrocellulose membrane and blocked with ROTI®Block (Carl Roth, Germany). After washing, the membrane was then incubated with 20 μg of recombinant Hsp90α (Abcam)/Lpl1-his protein at 4°C overnight. In case of interaction studies with Hsp90α, α-Hsp90α (produced in mouse, Abcam) was used as the primary antibody and for interaction studies with Lpl1-his, Anti-6X His tag antibody (also produced in mouse, Sigma-Aldrich, Germany) was used. Alkaline phosphatase conjugated goat-α-mouse IgG (Sigma-Aldrich, Germany) served as the secondary antibody. Detection was done using BCIP®/NBT solution (Sigma, Germany). Lpl1-his was isolated and purified as described in our previous paper (Tribelli et al. [2020])."}}, "data": [{"compound": "COC1=C2C[C@@H](C)C[C@H](OC)[C@H](O)[C@@H](C)/C=C(\\C)[C@H](OC(N)=O)[C@@H](OC)/C=C\\C=C(/C)C(=O)NC(=CC1=O)C2=O", "note": "[Geldanamycin, geldanamycin, reference compound]", "values": [{"measurement": "decrease in uptake/invasion of S. aureus USA300 by HaCaT cells compared to untreated control", "setting": "[1]; preincubation with L15 20 µM, L13 30 µM, geldanamycin 5 µM or α-Hsp90α antibody, MOI 30", "result": "approximately 75%"}, {"measurement": "Relative F-actin level in HaCaT", "setting": "[2]", "result": "0.88 ± 0.03"}, {"measurement": "relative F-actin content in N/TERT-1 cells", "setting": "[3]", "result": "0.82 ± 0.03"}, {"measurement": "concentration from which viability decreased gradually, HaCaT", "setting": "HaCaT cells", "result": "≥ 50", "unit": "µM"}, {"measurement": "concentration from which viability decreased, MM6", "setting": "MONO-MAC-6 (MM6) cells", "result": "≥ 10", "unit": "µM"}, {"measurement": "effect on survival of infected larvae", "setting": "S. aureus Newman; geldanamycin 5 mg/kg 1 h before infection, strain not restated in the sentence", "result": "no or rather a negative effect on survival"}, {"measurement": "toxicity of tested doses to larvae", "setting": "[4]; in vivo", "result": "not toxic to larvae"}, {"measurement": "decrease of phagocytosis of S. aureus into CD14+ monocytes", "setting": "[5]", "result": "no significant impact"}, {"measurement": "TNF-alpha production of infected PBMCs", "setting": "[6]; n = 4", "result": "inhibited"}, {"measurement": "IL-6 production of infected PBMCs", "setting": "[6]; n = 5", "result": "inhibited"}, {"measurement": "invasion of S. aureus USA300 into N/TERT-1 cells", "setting": "[7]", "result": "reduced USA300 invasion"}]}, {"compound": "CN[C@H](CC(C)C)C(=O)N[C@H]1C(=O)N[C@@H](CC(N)=O)C(=O)N[C@H]2C(=O)N[C@H]3C(=O)N[C@H](C(=O)N[C@H](C(=O)O)c4cc(O)cc(O)c4-c4cc3ccc4O)[C@H](O)c3ccc(c(Cl)c3)Oc3cc2cc(c3O[C@@H]2O[C@H](CO)[C@@H](O)[C@H](O)[C@H]2O[C@H]2C[C@](C)(N)[C@H](O)[C@H](C)O2)Oc2ccc(cc2Cl)[C@H]1O", "note": "[vancomycin, reference compound]", "values": [{"measurement": "larvae surviving on day 5, S. aureus Newman", "setting": "S. aureus Newman; peptides 60 mg/kg, vancomycin 20 mg/kg, injected 1 h before 10^6 cfu, 37°C", "result": 100, "unit": "%"}, {"measurement": "toxicity of tested doses to larvae", "setting": "[4]; peptides 60 mg/kg, geldanamycin 5 mg/kg, vancomycin 20 mg/kg", "result": "not toxic to larvae"}]}, {"compound": "DEIVKELRSRYNISTEKSPILKMHIDGDLKGSSVGYRKLEI DFSKRENSKLSVIEFLSYKPAKK [L26, Lpl1-derived peptide that increased S. aureus internalization]", "values": [{"measurement": "increase of invasion into HaCaT", "setting": "[1]; positive control peptides, S. aureus USA300", "result": "approximately 1.5 fold"}, {"measurement": "Interaction with Hsp90α", "setting": "Hsp90α", "result": "Yes"}, {"measurement": "Relative F-actin level in HaCaT", "setting": "[2]", "result": "1.25 ± 0.13"}]}, {"compound": "EMKNNKIIL [L17, Lpl1-derived peptide]", "values": [{"measurement": "Interaction with Hsp90α", "setting": "Hsp90α", "result": "No"}, {"measurement": "Relative F-actin level in HaCaT", "setting": "[2]", "result": "1.09 ± 0.20"}]}, {"compound": "GKGNETKED [L1, Lpl1-derived peptide]", "values": [{"measurement": "Interaction with Hsp90α", "setting": "Hsp90α", "result": "No"}, {"measurement": "Relative F-actin level in HaCaT", "setting": "[2]", "result": "0.95 ± 0.49"}]}, {"compound": "NKPGEL [L8, Lpl1-derived peptide]", "values": [{"measurement": "Interaction with Hsp90α", "setting": "Hsp90α", "result": "No"}, {"measurement": "Relative F-actin level in HaCaT", "setting": "[2]", "result": "0.96 ± 0.05"}]}]}
